Laboratory results reported in the supplement of paper PMC10307832.

Tests used:
Test in all cases: relative viability (nuclei count vs DMSO), 5 days (fraction); higher = more cells survive
Ponatinib + Dasatinib = compound: Cc1ccc(C(=O)Nc2ccc(CN3CCN(C)CC3)c(C(F)(F)F)c2)cc1C#Cc1cnc2cccnn12 [Ponatinib] + Cc1nc(Nc2ncc(C(=O)Nc3c(C)cccc3Cl)s2)cc(N2CCN(CCO)CC2)n1 [Dasatinib] (partner 0.075 µM)
Outline: (§1)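 Medians of duplicate plates are given as relative viability. That measure is the nuclei count in treated wells divided by the count in vehicle wells. Counts were taken on 4× images of lung cancer cell lines in 1536-well plates, 5 days after pin-tool dosing the day after seeding with one drug alone or a fixed anchor-drug dose plus five library-drug doses (not always all listed) in √10 steps.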

Pazopanib + Tozasertib = compound: Cc1ccc(Nc2nccc(N(C)c3ccc4c(C)n(C)nc4c3)n2)cc1S(N)(=O)=O [Pazopanib] + Cc1cc(Nc2cc(N3CCN(C)CC3)nc(Sc3ccc(NC(=O)C4CC4)cc3)n2)n[nH]1 [Tozasertib] (partner 0.1 µM)
Outline: as §1

Pazopanib + Pemetrexed = compound: Cc1ccc(Nc2nccc(N(C)c3ccc4c(C)n(C)nc4c3)n2)cc1S(N)(=O)=O [Pazopanib] + Nc1nc2[nH]cc(CCc3ccc(C(=O)N[C@@H](CCC(=O)O)C(=O)O)cc3)c2c(=O)[nH]1 [Pemetrexed] (partner 0.2 µM)
Outline: as §1

Ponatinib + Navitoclax = compound: Cc1ccc(C(=O)Nc2ccc(CN3CCN(C)CC3)c(C(F)(F)F)c2)cc1C#Cc1cnc2cccnn12 [Ponatinib] + CC1(C)CCC(c2ccc(Cl)cc2)=C(CN2CCN(c3ccc(C(=O)NS(=O)(=O)c4ccc(N[C@H](CCN5CCOCC5)CSc5ccccc5)c(S(=O)(=O)C(F)(F)F)c4)cc3)CC2)C1 [Navitoclax] (partner 0.5 µM)
Outline: as §1

| Cell Line | relative viability (Ponatinib + Dasatinib; first compound 0.002 µM) | relative viability (Ponatinib + Dasatinib; first compound 0.006325 µM) | relative viability (Ponatinib + Dasatinib; first compound 0.06325 µM) | relative viability (Ponatinib + Dasatinib; first compound 0.2 µM) | relative viability (Pazopanib + Tozasertib; first compound 0.01 µM) | relative viability (Pazopanib + Tozasertib; first compound 0.03162 µM) | relative viability (Pazopanib + Tozasertib; first compound 0.1 µM) | relative viability (Pazopanib + Tozasertib; first compound 0.3162 µM) | relative viability (Pazopanib + Tozasertib; first compound 1 µM) | relative viability (Pazopanib + Pemetrexed; first compound 0.01 µM) | relative viability (Pazopanib + Pemetrexed; first compound 0.03162 µM) | relative viability (Pazopanib + Pemetrexed; first compound 0.1 µM) | relative viability (Pazopanib + Pemetrexed; first compound 0.3162 µM) | relative viability (Pazopanib + Pemetrexed; first compound 1 µM) | relative viability (Ponatinib + Navitoclax; first compound 0.002 µM) | relative viability (Ponatinib + Navitoclax; first compound 0.006325 µM) | relative viability (Ponatinib + Navitoclax; first compound 0.06325 µM) | relative viability (Ponatinib + Navitoclax; first compound 0.2 µM) |
| --- | --- | --- | --- | --- | --- | --- | --- | --- | --- | --- | --- | --- | --- | --- | --- | --- | --- | --- |
| HCC-827 | 0.241 | 0.344 | 0.296 | 0.248 | 0.436 | 0.44 | 0.42 | 0.414 | 0.433 | 0.272 | 0.211 | 0.259 | 0.273 | 0.247 | 1.02 | 0.971 | 1.06 | 0.983 |
| HOP-62 | 0.6 | 0.607 | 0.819 | 0.6 | 0.366 | 0.388 | 0.307 | 0.431 | 0.286 | 0.366 | 0.36 | 0.339 | 0.3 | 0.224 | 0.943 | 0.984 | 1.01 | 0.817 |
| IA-LM | – | – | – | – | – | – | – | – | – | – | – | – | – | – | 0.658 | 0.62 | 0.749 | 0.684 |
| LC-2-ad | 0.286 | 0.298 | 0.313 | 0.256 | 0.469 | 0.444 | 0.516 | 0.467 | 0.471 | 0.292 | 0.281 | 0.274 | 0.311 | 0.275 | 0.482 | 0.419 | 0.49 | 0.349 |
| LCLC-97TM1 | 0.983 | 0.94 | 0.906 | 0.863 | 0.222 | 0.221 | 0.185 | 0.195 | 0.166 | – | 0.165 | 0.136 | 0.157 | 0.154 | – | 0.645 | – | 0.385 |
| LCLC-103H | 0.386 | 0.573 | 0.532 | 0.394 | 0.456 | 0.464 | 0.46 | 0.467 | 0.479 | 0.447 | 0.477 | 0.399 | 0.494 | 0.491 | – | – | – | – |
| LK-2 | – | 0.268 | 0.196 | 0.158 | – | 0.178 | 0.201 | 0.169 | 0.174 | 0.218 | 0.243 | 0.256 | 0.346 | 0.201 | 0.619 | 0.825 | 1.04 | 0.64 |
| LOU-NH91 | 0.541 | 0.581 | 0.548 | 0.525 | 0.647 | 0.664 | 0.749 | 0.781 | 0.698 | 0.367 | 0.356 | 0.417 | 0.416 | 0.352 | 0.679 | 0.753 | 0.779 | 0.655 |
| LU99A | 0.498 | 0.664 | 0.498 | 0.462 | 0.272 | 0.3 | 0.277 | 0.262 | 0.233 | – | 0.19 | 0.182 | 0.185 | 0.136 | 0.715 | 0.832 | 0.886 | 0.77 |
| LXF-289 | 0.26 | 0.275 | 0.26 | 0.195 | 0.223 | 0.213 | 0.189 | 0.189 | 0.175 | 1.01 | 0.899 | 0.904 | 0.845 | 0.848 | 0.862 | 0.957 | 0.935 | 0.971 |
| NCI-H23 | 0.667 | 0.748 | 0.867 | 0.726 | 0.373 | 0.341 | 0.359 | 0.458 | 0.392 | 0.529 | 0.727 | 0.702 | 0.658 | 0.829 | 0.762 | 0.828 | 0.852 | 0.781 |
| NCI-H358 | 0.185 | 0.184 | 0.236 | 0.187 | 0.109 | 0.0888 | 0.104 | – | 0.0878 | 0.179 | 0.167 | 0.168 | 0.165 | 0.161 | – | – | – | – |
| NCI-H522 | 0.782 | 0.846 | 0.703 | 0.816 | 0.568 | 0.454 | 0.493 | 0.646 | 0.58 | 0.842 | 0.83 | 0.956 | 1.09 | 1.02 | – | – | – | – |
| NCI-H650 | 0.37 | 0.456 | 0.492 | 0.411 | 0.688 | 0.826 | 0.691 | 0.804 | 0.655 | 0.871 | 0.922 | 0.863 | 0.884 | 0.798 | – | – | – | – |
| NCI-H661 | 0.786 | 0.965 | 0.987 | 0.819 | 0.343 | 0.355 | 0.349 | 0.347 | 0.344 | 0.863 | 0.938 | 0.969 | 0.955 | 0.861 | – | – | – | – |
| NCI-H727 | 0.322 | 0.497 | 0.338 | 0.565 | 0.599 | 0.543 | 0.622 | 0.631 | 0.704 | – | – | – | – | – | 0.612 | 0.53 | 0.472 | 0.523 |
| NCI-H1299 | – | – | – | – | – | – | – | – | – | – | – | – | – | – | 1.05 | 1.03 | 1.1 | 1.01 |
| NCI-H1563 | 0.473 | 0.506 | 0.447 | 0.434 | – | – | – | – | – | 0.707 | 0.805 | 0.691 | 0.876 | 0.81 | – | – | – | – |
| NCI-H1623 | 0.524 | 0.527 | 0.55 | 0.539 | 0.43 | 0.455 | 0.413 | 0.46 | 0.393 | – | – | – | – | – | – | – | – | – |
| NCI-H1648 | – | – | – | – | 0.387 | 0.57 | 0.398 | 0.459 | 0.476 | – | – | 0.662 | 0.77 | 0.742 | – | – | – | – |
| NCI-H1703 | – | – | – | – | – | – | – | – | – | – | – | – | – | – | 0.856 | 0.943 | 0.278 | 0.205 |
| NCI-H1792 | 0.726 | 0.795 | 0.886 | 0.542 | – | – | – | – | – | – | 0.943 | 0.742 | 0.781 | 0.79 | 0.609 | 0.648 | 0.582 | 0.624 |
| NCI-H2342 | 0.285 | 0.309 | 0.296 | 0.296 | 0.481 | 0.554 | 0.544 | 0.496 | 0.388 | 0.599 | 0.756 | 0.842 | 0.75 | 0.655 | – | – | – | – |
| SW 900 | 0.682 | 0.494 | 0.453 | 0.48 | 0.556 | 0.443 | 0.495 | 0.578 | 0.53 | 0.512 | 0.504 | – | 0.494 | 0.5 | – | – | – | – |
